Among the data in ChEMBL document CHEMBL1129119, “N-Benzylated benzimidazol-2-one derivatives: activators of large-conductance Ca2+-dependent K+ channels” (1996) are Control current values, retold here.

Molecules are shown by their SMILES.

The experiment is described as follows: Tested for maxi-K channel opening property using two -electrode voltage clamp recording from Xenopus laevis oocytes at 20 uM. Type of experiment: functional, frog, Oocyte.
In turn, `Oc1ccc(Cl)cc1Cn1c(O)nc2cc(Br)ccc21` came in with a Control current of 135.7%. The compound `Oc1ccc(Cl)cc1Cn1c(O)nc2cc(Cl)ccc21` showed a Control current of 150.1%. In the case of `Oc1ccccc1Cn1c(O)nc2cc(C(F)(F)F)ccc21` it was 126%; in that of `COc1ccc(Cl)cc1Cn1c(O)nc2ccccc21`, 104.2%. Turning to `O=[N+]([O-])c1ccc2c(c1)nc(O)n2Cc1cc(Cl)ccc1O`, the Control current worked out at 163.1%.

For the compound `Cc1ccc2c(c1)nc(O)n2Cc1cc(Cl)ccc1O`, the Control current amounted to 101.9%. The result for `Oc1ccc(Cl)cc1Cn1c(O)nc2cc(F)ccc21` reads 105.9%. The result for `Oc1ccc(Cl)cc1Cn1c(O)nc2cc(I)ccc21` reads 120.2%. In the case of `O=c1[nH]c2cc(C(F)(F)F)ccc2n1-c1cc(Cl)ccc1O` it was 131.8%; in that of `Oc1ccc(Cl)cc1Cn1c(O)nc2cnccc21`, 107.2%; in that of `Oc1ccccc1CCn1c(O)nc2cc(C(F)(F)F)ccc21`, 119.5%.

`Oc1ccc(Cl)cc1Cn1c(O)nc2cc(Cl)c(Cl)cc21`: the Control current was found to be 145.8%. In the case of `Oc1ccc2c(c1)nc(O)n2Cc1cc(Cl)ccc1O`, the Control current came out at 106%.

Take `Oc1ccc(Cl)cc1Cn1c(O)nc2ccccc21`: the Control current came out at 110.9%. Take `O=c1[nH]c2cc(C(F)(F)F)ccc2n1Cc1cc(Cl)ccc1O`: the Control current came to 133.4%. The result for `Oc1ccc(Cl)cc1Cn1c(O)nc2ccc(Cl)cc21` reads 116.3%. Regarding `Oc1ccc(Cl)cc1Cn1c(O)nc2ccncc21`, the Control current is on record as 100.8%. In the case of `Oc1ccc(Cl)cc1Cn1c(O)nc2ccc(Br)cc21` it was 107.9%. As to `Oc1ccc(Cl)cc1Cn1c(O)nc2cc(Cl)cc(Cl)c21`, the Control current was 118.3%.
